According to patent US12129275B2, “Neuroactive steroids, compositions, and uses thereof” (SAGE THERAPEUTICS, INC., priority 2011, dated 2024):
Values joined by “and” are separate entries in the source; they are usually repeats but may differ in a detail not shown here. Equal values may be shown once.

How the values were obtained:
[1] = molecular target: T1, NMDA receptor (GRIN1/GRIN2A subunits) (Homo sapiens, UniProt Q05586+Q12879); assay: NMDA potentiation, whole-cell patch-clamp in HEK cells; assay type: cell-based; settings: currents evoked by 30 μM NMDA and 5.0 μM Glycine, holding potential −80 mV; for NMDA 1a2A (%) Potentiation 0.1 uM: compound 0.1 uM; for NMDA 1a2A (%) Potentiation 1 uM: compound 1 uM
T1 construct: expressed in transfected cells
T1 sequence (Q12879 23-1464, other chains not shown): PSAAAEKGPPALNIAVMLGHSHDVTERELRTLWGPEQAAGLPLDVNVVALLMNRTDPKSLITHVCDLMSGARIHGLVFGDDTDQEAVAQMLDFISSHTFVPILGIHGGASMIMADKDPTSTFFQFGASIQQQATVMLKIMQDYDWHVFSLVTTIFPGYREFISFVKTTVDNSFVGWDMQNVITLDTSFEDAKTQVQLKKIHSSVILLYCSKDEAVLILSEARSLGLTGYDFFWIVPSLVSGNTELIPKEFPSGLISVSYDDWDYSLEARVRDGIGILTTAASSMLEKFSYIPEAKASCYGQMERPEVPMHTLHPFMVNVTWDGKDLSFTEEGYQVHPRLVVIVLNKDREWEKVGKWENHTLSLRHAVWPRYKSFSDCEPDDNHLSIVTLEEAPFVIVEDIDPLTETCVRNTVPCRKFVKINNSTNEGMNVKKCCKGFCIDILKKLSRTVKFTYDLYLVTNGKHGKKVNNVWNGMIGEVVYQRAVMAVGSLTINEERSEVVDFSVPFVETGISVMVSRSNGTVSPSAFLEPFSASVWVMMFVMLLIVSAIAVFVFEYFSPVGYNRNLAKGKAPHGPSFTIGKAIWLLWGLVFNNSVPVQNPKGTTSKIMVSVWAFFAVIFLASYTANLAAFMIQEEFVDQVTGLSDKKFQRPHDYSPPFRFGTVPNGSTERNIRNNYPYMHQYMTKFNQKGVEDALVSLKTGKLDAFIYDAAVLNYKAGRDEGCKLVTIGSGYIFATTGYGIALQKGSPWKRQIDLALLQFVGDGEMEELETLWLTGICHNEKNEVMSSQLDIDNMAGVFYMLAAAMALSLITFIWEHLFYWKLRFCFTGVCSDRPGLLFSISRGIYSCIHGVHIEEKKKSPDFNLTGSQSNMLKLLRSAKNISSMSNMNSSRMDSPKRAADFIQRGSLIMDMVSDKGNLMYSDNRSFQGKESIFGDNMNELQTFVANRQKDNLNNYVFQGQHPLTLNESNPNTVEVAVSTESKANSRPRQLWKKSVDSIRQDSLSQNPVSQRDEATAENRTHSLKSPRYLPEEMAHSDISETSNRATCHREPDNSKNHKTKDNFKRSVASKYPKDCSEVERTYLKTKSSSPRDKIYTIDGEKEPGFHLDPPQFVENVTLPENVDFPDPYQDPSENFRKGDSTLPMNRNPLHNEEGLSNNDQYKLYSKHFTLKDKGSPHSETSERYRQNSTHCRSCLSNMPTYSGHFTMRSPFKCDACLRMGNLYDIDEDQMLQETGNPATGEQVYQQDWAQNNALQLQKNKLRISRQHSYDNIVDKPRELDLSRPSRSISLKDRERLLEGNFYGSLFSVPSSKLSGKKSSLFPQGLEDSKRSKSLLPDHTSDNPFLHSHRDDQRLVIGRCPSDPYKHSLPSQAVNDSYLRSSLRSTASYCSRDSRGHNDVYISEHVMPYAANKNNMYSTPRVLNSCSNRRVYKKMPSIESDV

[2] = molecular target: NMDA (NR1a/NR2A) (Homo sapiens, UniProt Q05586+Q12879); settings: reported, Madau et al. / Connick et al. 2009; cited from earlier work
Chain of NMDA (NR1a/NR2A) (Q12879 23-1464, other chains not shown): as above

[3] = system: NMDA receptors; settings: background statement; cited from earlier work

Molecule | NMDA 1a2A (%) Potentiation 0.1 uM [1] | NMDA 1a2A (%) Potentiation 1 uM [1] | modulation of NMDA (NR1a/NR2A) [2] | selectivity NMDA over GABAA [2] | modulation of NMDA receptors [3]
CC(CCC(C)(C)O)[C@H]1CC[C@H]2[C@@H]3CC=C4C[C@@H](O)CC[C@]4(C)[C@H]3CC[C@]12C (stereo partly shown) | 55% | 197% |  |  | 
C[C@H](CCC(C)(C)O)[C@H]1CC[C@H]2[C@@H]3CC=C4C[C@@](C)(O)CC[C@]4(C)[C@H]3CC[C@]12C | 128% | 348% |  |  | 
C[C@H](CCC(C)(C)O)[C@H]1CC[C@H]2[C@@H]3CC=C4C[C@@H](O)CC[C@@H]4[C@H]3CC[C@]12C | 28% | 66% |  |  | 
C[C@H](CCC1(O)CC1)[C@H]1CC[C@H]2[C@@H]3CC=C4C[C@@H](O)CC[C@]4(C)[C@H]3CC[C@]12C | 74% | 171% |  |  | 
C[C@H](CC(F)(F)CO)[C@H]1CC[C@H]2[C@@H]3CC=C4C[C@@H](O)CC[C@]4(C)[C@H]3CC[C@]12C | 31% | 95% |  |  | 
C[C@H](CCCO)[C@H]1CC[C@H]2[C@@H]3CC=C4C[C@@H](O)CC[C@]4(C)[C@H]3CC[C@]12C | 39% | 127% |  |  | 
C[C@H](CCC(C)(C)O)[C@H]1CC[C@H]2[C@@H]3CC[C@H]4C[C@@H](O)CC[C@@H]4[C@H]3CC[C@]12C | 19% | 44% |  |  | 
C[C@@H]([C@H]1CC[C@H]2[C@@H]3CC=C4C[C@@H](O)CC[C@]4(C)[C@H]3CC[C@]12C)C(C)(C)O | 4% | 24% |  |  | 
CC(O)CC[C@@H](C)[C@H]1CC[C@H]2[C@@H]3CC=C4C[C@@H](O)CC[C@]4(C)[C@H]3CC[C@]12C (stereo partly shown) | 42% | 98% |  |  | 
C[C@H](CCC(C)(C)O)[C@H]1CC[C@H]2[C@@H]3CC=C4C[C@](C)(O)CC[C@]4(C)[C@H]3CC[C@]12C | 13% | 60% |  |  | 
C[C@H](CCC(C)(C)N)[C@H]1CC[C@H]2[C@@H]3CC=C4C[C@@H](O)CC[C@]4(C)[C@H]3CC[C@]12C | −8% | −19% |  |  | 
CC[C@]1(O)CC[C@@]2(C)C(=CC[C@H]3[C@@H]4CC[C@H]([C@H](C)CCC(C)(C)O)[C@@]4(C)CC[C@@H]32)C1 | 181% | 286% |  |  | 
CC[C@@]1(O)CC[C@@]2(C)C(=CC[C@H]3[C@@H]4CC[C@H]([C@H](C)CCC(C)(C)O)[C@@]4(C)CC[C@@H]32)C1 | 23% | 139% |  |  | 
CNC(C)(C)CC[C@@H](C)[C@H]1CC[C@H]2[C@@H]3CC=C4C[C@@H](O)CC[C@]4(C)[C@H]3CC[C@]12C | 25% | 19% |  |  | 
C[C@H](CCC(C)(C)O)[C@H]1CC[C@H]2[C@@H]3CC[C@H]4C[C@@](C)(O)CC[C@@H]4[C@H]3CC[C@]12C | 25% | 114% |  |  | 
C[C@H](CCC(C)(C)O)[C@H]1CC[C@H]2[C@@H]3CC[C@H]4C[C@](C)(O)CC[C@@H]4[C@H]3CC[C@]12C | 21% | 52% |  |  | 

Molecule | NMDA 1a2A (%) Potentiation 0.1 uM [1] | NMDA 1a2A (%) Potentiation 1 uM [1] | modulation of NMDA (NR1a/NR2A) [2] | selectivity NMDA over GABAA [2] | modulation of NMDA receptors [3]
C[C@H](CCC(C)(C)O)[C@H]1CC[C@H]2[C@@H]3CC[C@H]4C[C@](O)(C(F)(F)F)CC[C@@H]4[C@H]3CC[C@]12C | 14% | 85% |  |  | 
C[C@H](CCC(C)(C)O)[C@H]1CC[C@H]2[C@@H]3CC[C@H]4C[C@@H](O)CC[C@]4(C)[C@H]3CC[C@]12C | 18% | 85% |  |  | 
C[C@H](CCC(C)(C)O)[C@H]1CC[C@H]2[C@@H]3CC[C@H]4C[C@](O)(C(F)(F)F)CC[C@]4(C)[C@H]3CC[C@]12C | 59% | 172% |  |  | 
C[C@H](CCC(C)(C)O)[C@H]1CC[C@H]2[C@@H]3CC[C@H]4C[C@](C)(O)CC[C@]4(C)[C@H]3CC[C@]12C | 19% | 30% |  |  | 
C[C@H](CCC(C)(C)O)[C@H]1CC[C@H]2[C@@H]3CC[C@H]4C[C@@](C)(O)CC[C@]4(C)[C@H]3CC[C@]12C | 87% and 70% | 278% and 238% |  |  | 
C[C@H](CC(C)(C)O)[C@H]1CC[C@H]2[C@@H]3CC=C4C[C@@H](O)CC[C@]4(C)[C@H]3CC[C@]12C | −5% | 27% |  |  | 
CC(C)[C@H](O)CC[C@@H](C)[C@H]1CC[C@H]2[C@@H]3CC=C4C[C@@H](O)CC[C@]4(C)[C@H]3CC[C@]12C | 82% | 137% |  |  | 
C[C@H](CCC(C)(C)O)[C@H]1CC[C@H]2[C@@H]3CC[C@@H]4C[C@@](O)(C(F)(F)F)CC[C@]4(C)[C@H]3CC[C@]12C | 9% | 18% |  |  | 
COC[C@@]1(O)CC[C@@]2(C)[C@@H](CC[C@@H]3[C@@H]2CC[C@]2(C)[C@@H]([C@H](C)CCC(C)(C)O)CC[C@@H]32)C1 | 8% | 25% |  |  | 
COC[C@]1(O)CC[C@@]2(C)[C@@H](CC[C@@H]3[C@@H]2CC[C@]2(C)[C@@H]([C@H](C)CCC(C)(C)O)CC[C@@H]32)C1 | 14% | 110% |  |  | 
CC(C)(O)CCC[C@H]1CCC2C3CC[C@H]4C[C@@](C)(O)CC[C@]4(C)C3CC[C@@]21C (stereo partly shown) | 17% | 105% |  |  | 
CC(C)(O)CCO[C@H]1CCC2C3CC[C@H]4C[C@@](C)(O)CC[C@]4(C)C3CC[C@@]21C (stereo partly shown) | 6% | 27% |  |  | 
CC(C)(O)COC[C@H]1CCC2C3CC=C4C[C@@](C)(O)CC[C@]4(C)C3CC[C@@]21C (stereo partly shown) | −5% | −14% |  |  | 
C[C@H](CCC(C)(C)O)[C@H]1CC[C@H]2[C@@H]3CC=C4C[C@@H](O)CC[C@]4(C)[C@H]3CC[C@]12C [Org-1] |  |  | positive modulator | selectively modulate NMDA over GABAA | 
pregnenolone sulfate [PS] |  |  |  |  | positively modulated
